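All cell lines were grown in 96-well plates and treated with compound for 48 hours. The concentration for 50% growth inhibition is given as GI50. TGI marks complete inhibition of growth.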
Experiments:
Assay in all cases: NCI anticancer screen, dose series, 48 h
KM12 colon = tested on: KM12 colon
MOLT-4 leukemia = tested on: MOLT-4 leukemia
UO-31 renal = tested on: UO-31 renal
UACC-62 melanoma = tested on: UACC-62 melanoma
SR leukemia = tested on: SR leukemia
MDA-MB-231 breast = tested on: MDA-MB-231 breast
SK-MEL-5 melanoma = tested on: SK-MEL-5 melanoma
IGROV1 ovarian = tested on: IGROV1 ovarian
EKVX NSCLC = tested on: EKVX NSCLC
A549 NSCLC = tested on: A549 NSCLC

| Compound | TGI (KM12 colon) [µM] | TGI (MOLT-4 leukemia) [µM] | TGI (UO-31 renal) [µM] | TGI (UACC-62 melanoma) [µM] | TGI (SR leukemia) [µM] | TGI (MDA-MB-231 breast) [µM] | TGI (SK-MEL-5 melanoma) [µM] | TGI (IGROV1 ovarian) [µM] | TGI (EKVX NSCLC) [µM] | TGI (A549 NSCLC) [µM] | GI50 (KM12 colon) [µM] | GI50 (A549 NSCLC) [µM] | GI50 (UACC-62 melanoma) [µM] | GI50 (SR leukemia) [µM] | GI50 (EKVX NSCLC) [µM] | GI50 (MDA-MB-231 breast) [µM] | GI50 (SK-MEL-5 melanoma) [µM] | GI50 (MOLT-4 leukemia) [µM] | GI50 (UO-31 renal) [µM] | GI50 (IGROV1 ovarian) [µM] |
| --- | --- | --- | --- | --- | --- | --- | --- | --- | --- | --- | --- | --- | --- | --- | --- | --- | --- | --- | --- | --- |
| OCC1NC(CO)C(O)C1O (configuration not stated) | > 100 | > 100 | > 100 | > 100 | > 100 | > 100 | > 100 | > 100 | – | – | – | – | – | – | – | – | – | – | – | – |
| Nc1ccc(C2(c3ccc(N)cc3)C3CC4CC(C3)CC2C4)cc1 | 25.3 | 28.2 | 33.9 | 30.6 | > 100 | 37.5 | – | 24.1 | 32 | – | – | – | – | – | – | – | – | – | – | – |
| O=Nn1c2ccccc2c2ccccc21 | > 100 | > 100 | > 100 | > 100 | – | > 100 | > 100 | > 100 | > 100 | > 100 | – | – | – | – | – | – | – | – | – | – |
| CC(C)N(CCNc1nc(C(Cl)(Cl)Cl)nc2cc(Cl)ccc12)C(C)C | 2.83 | – | – | 3.22 | 3.11 | 2.46 | 2.93 | – | 4.32 | 3.15 | 1.32 | 1.67 | 1.72 | 0.926 | 1.57 | 1.1 | 1.56 | – | – | – |
| Cc1ccc(S(=O)(=O)NCCCSCCN)cc1 | > 100 | > 100 | > 100 | – | > 100 | > 100 | > 100 | – | – | > 100 | – | – | – | – | – | – | – | – | – | – |
| COc1ncnc2c(Cl)c(C(O)c3ccccc3)c(Cl)cc12 (configuration not stated) | > 100 | > 100 | > 100 | 52.1 | 22.7 | 58.6 | > 100 | > 100 | > 100 | > 100 | – | – | – | – | – | – | – | – | – | – |
| Fc1ccc(C2CC(c3cccc(Nc4ccncc4)c3)=NN2c2ccccc2)cc1 (configuration not stated) | 3.07 | 5.81 | 2.86 | 3.24 | 5.67 | 2.95 | 3.22 | 3.49 | 5.71 | – | 1.63 | – | 1.76 | 2.17 | 1.99 | 1.57 | 1.78 | 2.47 | 1.45 | 1.8 |
| O=C(Nc1ccc(C(F)(F)F)cc1[N+](=O)[O-])C(=O)Nn1c(=S)[nH]c2ccccc2c1=O | > 100 | > 100 | > 100 | > 100 | > 100 | – | > 100 | > 100 | > 100 | > 100 | – | – | – | – | – | – | – | – | – | – |
| CCOP(=O)(OCC)C(Cc1c[nH]c2ccccc12)C(=O)O (configuration not stated) | – | > 100 | > 100 | – | > 100 | > 100 | > 100 | > 100 | – | > 100 | – | – | – | – | – | – | – | – | – | – |
| CC=C/C=C/[C@@H]1O[C@](O)([C@H](CC)C(=O)NC/C=C/C=C(\C)[C@@H](OC)[C@@H](C)[C@@H]2O[C@H](/C=C/C=C/C=C(\C)C(=O)c3c(O)cc[nH]c3=O)[C@H](O)[C@@H]2O)[C@H](O)[C@H](O)C1(C)C | > 100 | > 100 | > 100 | > 100 | > 100 | – | – | > 100 | > 100 | > 100 | – | – | – | – | – | – | – | – | – | – |
| COc1ccc(/C=C/c2cc(O)cc(OC3OC(CO)C(O)C(O)C3O)c2)cc1O (configuration not stated) | 86.5 | > 100 | > 100 | > 100 | > 100 | > 100 | > 100 | > 100 | > 100 | > 100 | – | – | – | – | – | – | – | – | – | – |
| COc1ccc(CCn2ccc(C)n2)c(OC)c1 | > 100 | > 100 | > 100 | > 100 | – | > 100 | > 100 | > 100 | > 100 | > 100 | – | – | – | – | – | – | – | – | – | – |

Source: PubChem BioAssay (NCI)
